In experiment [1] the target is T1, Gal3 FL (Homo sapiens, UniProt P17931).
T1 construct: Recombinant human galectin-3 (Gal3, 26 kDa, full-length galectin-3 or Gal3 FL); made in house
The experiment in a line: Tryptophan fluorescence spectroscopy (TFS), Gal3 FL. The format is binding. Conditions: 2 μM Gal3 FL; 25 °C; pH 7.4; read-out: KD (TFS, non-linear regression). An excerpt:
(§1) The formation of Gal3–Au^3+TTPS complexes can be followed by the changes in the intrinsic or tryptophan fluorescence spectroscopy. Binding of the metal-based drug to Gal3 FL caused a red shift of the maximum emission wavelength of about 9 nm (339 nm to 348 nm), as well as a decrease in fluorescence intensity. This is indicative of indole side chains of Trp residues being exposed on the protein surface. […] The hyperbolic nature of the binding curves of gold porphyrin to of Gal3 FL and Gal3 CRD is indicative of the presence of a single binding site for the ligand.
(§2) Figure 3 TFS measurements of complex formation with Gal3. […] The data points were plotted as means ± standard error of the mean for three independent experimental data sets.
(§3) Tryptophan fluorescence spectroscopy (TFS) was performed on a Shimadzu spectrofluorometer (Shimadzu, Kyoto, Japan). […] Total fluorescence was calculated after normalization of the fluorescence spectra and corrected for dilution. In order to account for the inner filter and the self-absorption effects, the experiments were always carried out on samples with absorbance (OD280nm) less than 0.05. Absorbance was measured using a spectrophotometer (Beckman, Brea, CA, USA). All measurements were performed at 25 °C, with the temperature of the samples determined in the cuvette with an accuracy of ± 0.2 °C.

For experiment [2], the target named is T1, Gal3 FL. The experiment is described as follows: Isothermal titration calorimetry (ITC), Gal3 FL. The class given is binding. Conditions: 22 °C. An excerpt: We used isothermal titration calorimetry (ITC), which is a molecular interaction technique ideal for the reliable determination of stoichiometric ratios in the protein soluble state. […] The reaction is exothermic and enthalpy driven with a heat release of −5363 ± 196.4 cal/mol, indicating a substantial number of non-covalent bonding during complex formation. Moreover, the interaction also profits from a significant entropic contribution of 1956 cal/mol.
A VP-ITC MicroCal instrument (Malvern Panalytical Ltd, Malvern, UK) with cell volume of 1.4253 mL was used at 22 °C for the measurement of the stoichiometric ratio and the enthalpy/entropy contributions to the binding of gold prophyrin to Gal3 FL. Prior to the experiment, the Gal3 FL protein was dialyzed extensively against 20 mM Hepes at pH 7.4 and 150 mM NaCl, the buffer used for the experiment.
In general terms: In ITC the heat of successive injections is recorded.

The target of experiment [3] is T2, Gal3 CRD (Homo sapiens, UniProt P17931).
T2 construct: The carbohydrate recognition domain (Pro106-Ile250) of human Gal3 (Gal3 CRD); His-tag; made in house; host or cells: Escherichia coli BL21(DE3)
T2 sequence (P17931 106-250): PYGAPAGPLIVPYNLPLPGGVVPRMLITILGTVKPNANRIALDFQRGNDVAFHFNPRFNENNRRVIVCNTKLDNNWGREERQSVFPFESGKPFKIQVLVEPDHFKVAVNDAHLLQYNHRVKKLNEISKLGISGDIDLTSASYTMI
The experiment in a line: Tryptophan fluorescence spectroscopy (TFS), Gal3 CRD. The format is binding. Conditions: 10 μM Gal3 CRD; 25 °C; pH 7.4; read-out: KD (TFS, non-linear regression).
Description: as §1, §2, §3

For experiment [4], the target named is T2, Gal3 CRD. The experiment in a line: MST capillary scan, fit to initial fluorescence, Gal3 CRD. The format is binding. The source says:
(§4) The large and unwanted initial fluorescence changes (Figure 1D) are unlikely to originate from Trp181 near the lactose-binding site of Gal3 CRD, because the MST was run using red fluorescence excitation and emission wavelengths. Also, although Gal3 FL has three tryptophans (Trp22, Trp26 and Trp181) instead of a single one (Trp181) in Gal3 CRD, it appears less affected (Figure 1A versus D). Therefore, there is more likely an involvement of NT-647-NHS-labelled lysine residues near the binding site of Au^3+TTPS. This involvement of labelled lysines enabled the fit based on the initial fluorescence data (Figure 2). […] Therefore, we initiated tryptophan fluorescence spectroscopy measurements (TFS).
(§5) Microscale thermophoresis (MST) is a technique to quantify biomolecular interactions by measuring the directed movement of molecules in a microscopic temperature gradient induced by an infrared laser. The directed movement of molecules in thin capillaries was detected and quantified by means of a red-light fluorophore (NT-647-NHS, with excitation maximum at 647 nm and emission maximum at 670 nm) covalently linked to Gal3 proteins. […]
(§6) A two-fold dilution series of ligand concentrations was established ranging from 239 μM to […], with a constant concentration of 4 μM Gal3 FL and 22 μM Gal3 CRD. […] The data were analyzed using the MO Affinity Analysis software v2.2.4.

The target of experiment [5] is T1, Gal3 FL. The experiment is described as follows: MST capillary scan, fit to initial fluorescence, Gal3 FL. The format is binding. Conditions: capillary scan values, time point 0, read-out: KD from fit of initial (before thermophoresis) fluorescence.
Description: as §4, §5, §6

The target in experiment [6] is T2, Gal3 CRD. The experiment is described as follows: Isothermal titration calorimetry (ITC), Gal3 CRD. The class given is binding. Conditions: Gal3 CRD 32.67 μM, also at twice higher concentrations.
Experiment [7] concerns the target T3, full-length Gal3 (Gal3 FL) (Homo sapiens, UniProt P17931).
T3 construct: Recombinant human galectin-3 (Gal3, 26 kDa, full-length galectin-3 or Gal3 FL); made in house
The experiment in a line: Microscale thermophoresis (MST), Gal3 FL. The class given is binding. The source says: Microscale thermophoresis (MST) is a very sensitive, immobilization-free interaction technique that is based on the speed of migration away from a central point in the capillary that is hit by an infra-red laser at time 0 (Figure 1).
Microscale thermophoresis (MST) is a technique to quantify biomolecular interactions by measuring the directed movement of molecules in a microscopic temperature gradient induced by an infrared laser. The directed movement of molecules in thin capillaries was detected and quantified by means of a red-light fluorophore (NT-647-NHS, with excitation maximum at 647 nm and emission maximum at 670 nm) covalently linked to Gal3 proteins. For labelling, we used two times the concentration of the protein (16 μM Gal3 FL, 43 μM Gal3 CRD) for the fluorophore. Removal of excess fluorphore was combined with buffer exchange into 20 mM Hepes, pH 7.4 with 150 mM NaCl and 0.05% Tween-20.
A two-fold dilution series of ligand concentrations was established ranging from 239 μM to […], with a constant concentration of 4 μM Gal3 FL and 22 μM Gal3 CRD. The samples were loaded into standard glass capillaries and readings were performed with the red light of a Monolith NT.115, with LED power setting of 20% and an MST power setting of 40%. […] The same procedure was repeated for Gal3 CRD and using roscovitine as a ligand. The data were analyzed using the MO Affinity Analysis software v2.2.4.
In general terms: In MST a laser heats a spot of the sample, and binding alters the fluorescence response.

Experiment [8] has as its system Gal3. Conditions: cited from earlier work.
For experiment [9], the target named is T2, Gal3 CRD. Details: method as in PMID 31094416. Conditions: ref 46; cited from earlier work.

Read-outs that look alike come from different tables or passages of the source.

The term Kd denotes a measure of binding affinity in units of concentration.

T1 sequence (P17931 whole entry): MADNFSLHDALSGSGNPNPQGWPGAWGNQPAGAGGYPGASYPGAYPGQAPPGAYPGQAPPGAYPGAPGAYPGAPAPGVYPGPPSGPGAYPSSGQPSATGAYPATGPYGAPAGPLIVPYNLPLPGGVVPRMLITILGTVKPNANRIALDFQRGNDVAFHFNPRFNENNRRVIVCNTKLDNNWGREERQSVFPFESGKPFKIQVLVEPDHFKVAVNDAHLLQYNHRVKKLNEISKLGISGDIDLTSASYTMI
T3 sequence (P17931 whole entry): as above

In the case of “5,10,15,20-Tetrakis(4-sulfonatophenyl)-porphyrin-Au(III)chloride [Au^3+TPPS]”, the dissociation constant Kd came out at 2.6 ± 0.6 µM in experiment [1]; 3.78 ± 0.27 µM in experiment [2] (20 mM Hepes pH 7.4, 150 mM NaCl, read-out: equilibrium dissociation constant KD (ITC)); 22.7 ± 5.6 µM in [3]; 25.9 ± 0.65 µM in experiment [4] (Gal3 CRD, capillary scan values, time point 0, read-out: KD from fit of initial (before thermophoresis) fluorescence); 5.83 ± 0.65 µM in experiment [5]; 2.84 ± 1.03 µM in [7] (Gal3 FL labelled with NT-647-NHS, 4 μM Gal3 FL, thermophoresis read-out, read-out: KD (MST curves)). In addition, in experiment [2], the “change in Gibbs free energy (ΔG) (ITC)” value was -7.326 kcal/mol. Moreover, the “entropic contribution (ITC)” value in experiment [2] was found to be 1.956 kcal/mol. The “heat release (enthalpy) (ITC)” value in experiment [2] was -5.363 ± 0.1964 kcal/mol. Moreover, in experiment [2], the “stoichiometry (ITC)” value was found to be 1.02 ± 0.03 sites. In addition, the “weaker binding of truncated Gal3 (CRD) versus Gal3 FL” value in [4] (comparison of initial fluorescence fits) is “at Least 5 fold”. The “ITC titration result with Gal3 CRD” value in experiment [6] was “no measurable results”. The “binding after SDS denaturation of Gal3 FL (SD test)” value in experiment [7] (Gal3 FL denatured with 4% SDS, 40 mM DTT, 95 °C, same concentration series) was “without observing binding”.
For `OC[C@H]1O[C@@H](O[C@H]2[C@H](O)[C@@H](O)C(O)O[C@@H]2CO)[C@H](O)[C@@H](O)[C@H]1O` (mixture of isomers) [lactose], in experiment [8] (ref 42), the “inhibition of Zn^2+TTPS binding to Gal3” value is “did not inhibit”.
With `CC(=O)N[C@H]1C(O)O[C@H](CO)[C@@H](O[C@@H]2O[C@H](CO)[C@H](O)[C@H](O)[C@H]2O)[C@@H]1O` (some centres unmarked) [N-acetyllactosamine], the Kd was 25 µM in [8] (ref 43), 28 µM in experiment [8] (ref 44), 112 µM in [8] (ref 45) and 118 µM in experiment [8] (ref 46).
Consider `CC[C@H](CO)Nc1nc(NCc2ccccc2)c2ncn(C(C)C)c2n1` [roscovitine, reference compound], for which the “affinity between Gal3 FL and ligand (MST)” value in experiment [7] (Gal3 FL, MST) was “no affinity”.
Take “CD146: cluster of differentiation 146, melanoma cell adhesion molecule, cell surface glycoprotein”: the “affinity for Gal3 CRD” value in [9] is listed as “unmeasurable”.

The values are drawn from article PMC6943629, “Binding of Gold(III) Porphyrin by the Pro-metastatic Regulatory Protein Human Galectin-3” (Molecules, 2019).
